These results are taken from US20040110718A1, “Anti-HCV nucleoside derivatives” (priority 2000, published 2004).

The structures appear in SMILES notation.

One data set relates to HCV replicon RNA replication. Description: HCV replicon assay, Renilla luciferase reporter. Particulars: Hepatitis C virus, Huh-7, 72 h; Renilla luciferase HCV replicon cells (2209-23, Huh7), three days incubation; concentration reducing luciferase activity/replicon level by 50%. The data set is classed as cell-based. (A replicon is a self-replicating genome or part of one, used to study replication in cells.)
As usually defined, the IC50 is the point on the concentration scale where inhibition reaches its midpoint. For `Nc1ccn([C@@H]2C[C@H](CO)[C@@H](O)[C@H]2O)c(=O)n1` [Example 246, 4-amino-1(R)-(2(S),3(R)-dihydroxy-4(R)-hydroxymethyl-cyclopentyl)-1H-pyrimidin-2-one], the IC50 was found to be 0.4 µM.

`CCNc1ncnc2c1ncn2[C@@H]1O[C@H](CO)[C@@H](O)[C@H]1O` [Example 252, 6-ethylamino-9-(β-D-ribofuranosyl)purine] registered an IC50 of 14 µM.

The molecule `Nc1ccn([C@@H]2O[C@H](CO)[C@H](O)[C@H]2O)c(=O)n1` [Example 247, 1-(β-D-xylofuranosyl)cytosine] came in with an IC50 of 3.7 µM. `CCCNc1ncnc2c1ncn2[C@@H]1O[C@H](CO)[C@@H](O)[C@H]1O` [Example 253, 6-propylamino-9-(β-D-ribofuranosyl)purine] returned an IC50 of 7 µM.

`Nc1ccn([C@@H]2O[C@H](CO)[C@H](F)[C@H]2O)c(=O)n1` [Example 249, 1-(3-deoxy-3-fluoro-β-D-xylofuranosyl)cytosine] had an IC50 of 10.4 µM.

System in another data set: not given
Assay: not given
Details: not given
Broadly, the melting point is the temperature, or range, at which the solid turns liquid. In the case of `OC[C@H]1O[C@@H](n2cnc3c(-c4ccsc4)ncnc32)[C@H](O)[C@@H]1O` [Example 181, 9-(β-D-Ribofuranosyl)-6-(3-thienyl)purine], the melting point is 166 to 167 °C (dec.). On the same count and under the same terms, to `OC[C@H]1O[C@@H](n2cnc3c(-c4ccccc4)ncnc32)[C@H](O)[C@@H]1O` [Example 182, 6-Phenyl-9-(β-D-ribofuranosyl)purine] belongs 224 to 225 °C.

For a further data set, the system named is HCV replicon RNA replication. Description: HCV replicon assay (quantification of replicon RNA, Northern blot / Taqman kinetic PCR). Particulars: Hepatitis C virus, Huh-7, 72 h. It counts as cell-based. Here is the method:
Assay Method: The activity of the compounds was assayed using an adaptation of the method reported by Lohmann et al [V. Lohmann et al., Science, 1999, 285, 110-113].
The HCV replicon-containing cell line is used for the identification of small molecules that are able to inhibit the replication of the replicon RNA. Since the replicon RNA replication mimics the replication of the HCV RNA in infected hepatocytes, it is believed that those small molecules that have the above property are interesting for further development as anti-HCV drugs.
The inhibition of the HCV replicon RNA replication will lead to a decrease of the replicon RNA in the cell, which can be measured using a method that specifically quantifies this RNA.
Northern blot: One method for quantification of this RNA uses the standard Northern blot known to any person skilled in the art.
Kinetic PCR: A second assay for the quantification of replicon RNA is based on the amplification of the replicon RNA that remains in the cell, after incubation of the cells with a proper concentration of the small molecules. This method involves the reverse transcription of the replicon RNA to the corresponding complementary DNA (cDNA), followed by amplification of the cDNA using the Taqman Kinetic PCR technology (PE Biosystems). This consists of hybridisation of the cDNA with a complementary reporter oligonucleotide (probe), containing a combined fluorescent dye and a quencher dye. Amplification of the DNA sequence containing the hybridised reporter probe, using flanking oligonucleotide primers will lead to the separation of the fluorescent dye from the quencher dye. This will result in an increase of the fluorescence during each amplification cycle.
The neomycin phosphotransferase gene sequence that is present in the replicon RNA was chosen for amplification using specifically designed oligonucleotide primers. To control for (a) cell number that can vary depending on the toxicity or cytostatic effect of the small molecules, and (b) for errors during total RNA extraction, amplification of the host β-actin gene is used for normalisation.
The accumulation of the PCR products during the reaction is monitored directly by measuring the increase in fluorescence of the reporter dye. The amount of HCV replicon RNA (and β-actin RNA) originally present in the total RNA extracted from the cells is then expressed as a threshold cycle, e.g. the cycle at which there is a statistically significant increase in the fluorescence above the background.
For this procedure, HCV replicon-containing human hepatoma Huh7 cells (9-13) in growth medium (DMEM) containing 5% FCS are plated in a 96-well plate at 5×10^3 cells per well, and the plate incubated overnight. 24 hours later, different dilutions in 0.1 ml growth medium of chemical compounds were added to the wells, and the plate further incubated at 37° C. for three days. Total RNA coming from each well is extracted using the RNeasy™ procedure (Qiagen manufacturer instructions), and the total RNA is eluted in a final volume of 0.13 ml. Next, a 2 μl sample of the total RNA is used for convertion into cDNA using a reverse transcription (RT) step. A RT mastermix containing 1 μl 10× Taqman RT buffer, 2.2 μl 25 mM MgCl2 (5.5 mM final conc.), 2 μl dNTP mix (500 μM each), 0.5 μl random hexamer primers (2.5 μM), 0.2 μl RNase inhibitor (0.4 u/μl ), 0.25 μl RT (1.25 u/μl ), 1.85 μl H2O, was distributed in a 96-well plate and 2 μl total RNA was added to each well.
The RT reaction is performed by incubation of the plate 10 min at 25° C., 30 min at 48° C., 5 min at 95° C. and cooling to 4° C. The cDNA samples are then stored at −20° C. or directly used for the PCR reaction. […]
Regarding `OC[C@H]1O[C@@H](n2cnc3c(-c4ccsc4)ncnc32)[C@H](O)[C@@H]1O` [Example 181, 9-(β-D-Ribofuranosyl)-6-(3-thienyl)purine], the IC50 amounted to 50 nM.

The data set is the same for the next values; noted with them: Hepatitis C virus, Huh-7, 72 h; HCV replicon-containing human hepatoma Huh7 cells (9-13), three days incubation; concentration reducing replicon RNA levels by 50%; read-out: IC50.
For `OC[C@H]1O[C@@H](n2cnc3c(-c4ccccc4)ncnc32)[C@H](O)[C@@H]1O` [Example 182, 6-Phenyl-9-(β-D-ribofuranosyl)purine], the IC50 is 100 nM.

Consider `OC[C@H]1O[C@@H](n2cnc3c(-n4cccn4)ncnc32)[C@H](O)[C@@H]1O` [Example 113, 6-(1-Pyrazolyl)-9-(β-D-ribofuranosyl)purine], for which the IC50 worked out at 4400 nM. On to `O=c1[nH]c(=O)n([C@@H]2O[C@H](CO)[C@@H](O)[C@H]2O)cc1F` [Example 24, 5-Fluorouridine], for which the IC50 is 1400 nM.

As for `C#CCNc1ncnc2c1ncn2[C@@H]1O[C@H](CO)[C@@H](O)[C@H]1O` [Example 81, 6-(2-Propynyl)amino-9-(β-D-ribofuranosyl)purine], the IC50 is 3800 nM. Regarding `OC[C@H]1O[C@@H](n2cnc3c(-n4cncn4)ncnc32)[C@H](O)[C@@H]1O` [Example 112, 9-(β-D-Ribofuranosyl)-6-(1,2,4-triazol-1-yl)purine], the IC50 was found to be 4400 nM. For `OC[C@H]1O[C@@H](n2cnc3c(N4CCc5ccccc5C4)ncnc32)[C@H](O)[C@@H]1O` [Example 57, 9-(β-D-Ribofuranosyl)-6-(1,2,3,4-tetrahydro-2-isoquinolyl)purine], the IC50 is 100 nM.
